Source: paper PMC5218480 (PLoS ONE, 2017)

Tested on: MV-4-11 cells
Assay: Gene expression microarray analysis (Affymetrix PrimeView) and GSEA
Assay type: cell-based, human
Set-up: RFU PODN (11730768_x_at) / Fold change /veh PODN (11730768_x_at) / RFU LINC00158 (11744669_a_at) / Fold change /veh LINC00158 (11744669_a_at) / RFU DUSP10 (11751237_a_at) / Fold change /veh DUSP10 (11751237_a_at) / RFU ID3 (11757404_x_at) / Fold change /veh ID3 (11757404_x_at) / RFU PLEKHG5 (11737974_s_at) / Fold change /veh PLEKHG5 (11737974_s_at) / RFU LRRC4B (11730491_at) / Fold change /veh LRRC4B (11730491_at) / RFU GIMAP4 (11747438_a_at) / Fold change /veh GIMAP4 (11747438_a_at) / RFU KRT8 (11758183_x_at) / Fold change /veh KRT8 (11758183_x_at) / RFU CNN1 (11734310_a_at) / Fold change /veh CNN1 (11734310_a_at) / RFU VPS37D (11726825_at) / Fold change /veh VPS37D (11726825_at) / RFU C10orf10 (11716522_x_at) / Fold change /veh C10orf10 (11716522_x_at) / RFU KIR2DL2 /// KIR2DL4 /// KIR2DL5A /// KIR2DL5B /// KIR2DS1 /// KIR2DS2 /// KIR2DS3 /// KIR2DS4 /// KIR3DL3 /// KIR3DL3 /// KIR3DS1 (11738374_at) / Fold change /veh KIR2DL2 /// KIR2DL4 /// KIR2DL5A /// KIR2DL5B /// KIR2DS1 /// KIR2DS2 /// KIR2DS3 /// KIR2DS4 /// KIR3DL3 /// KIR3DL3 /// KIR3DS1 (11738374_at) / RFU C1QL1 (11718748_at) / Fold change /veh C1QL1 (11718748_at) / RFU TMPRSS4 (11747572_a_at) / Fold change /veh TMPRSS4 (11747572_a_at) / RFU HAMP (11756126_x_at) / Fold change /veh HAMP (11756126_x_at) / RFU RNFT2 (11725882_a_at) / Fold change /veh RNFT2 (11725882_a_at) / RFU NR4A2 (11747474_a_at) / Fold change /veh NR4A2 (11747474_a_at) / RFU ABCC12 (11746883_a_at) / Fold change /veh ABCC12 (11746883_a_at) / RFU TMEM136 (11760407_x_at) / Fold change /veh TMEM136 (11760407_x_at) / RFU CLDN22 /// WWC2 (11732394_at) / Fold change /veh CLDN22 /// WWC2 (11732394_at) / RFU HLA-DPB1 (11760878_x_at) / Fold change /veh HLA-DPB1 (11760878_x_at) / RFU SPINT1 (11716480_a_at) / Fold change /veh SPINT1 (11716480_a_at) / RFU GAP43 (11754022_s_at) / Fold change /veh GAP43 (11754022_s_at) / RFU A4GNT (11735810_at) / Fold change /veh A4GNT (11735810_at) / RFU PRB3 (11715151_x_at) / Fold change /veh PRB3 (11715151_x_at) / RFU TUBB4B (11761932_at) / Fold change /veh TUBB4B (11761932_at) / RFU CAPN14 (11732068_a_at) / Fold change /veh CAPN14 (11732068_a_at) / RFU TMCC2 (11721928_a_at) / Fold change /veh TMCC2 (11721928_a_at) / RFU IRGQ (11745062_a_at) / Fold change /veh IRGQ (11745062_a_at) / RFU FAM174B (11720279_a_at) / Fold change /veh FAM174B (11720279_a_at) / RFU TMPRSS4 (11748680_a_at) / Fold change /veh TMPRSS4 (11748680_a_at) / RFU FAM212B (11763350_a_at) / Fold change /veh FAM212B (11763350_a_at) / RFU PLEKHG5 (11743358_a_at) / Fold change /veh PLEKHG5 (11743358_a_at) / RFU ZSCAN30 (11745921_a_at) / Fold change /veh ZSCAN30 (11745921_a_at) / RFU CMKLR1 (11741424_a_at) / Fold change /veh CMKLR1 (11741424_a_at) / RFU LOC101060620 /// MAPK8IP1 (11723275_at) / Fold change /veh LOC101060620 /// MAPK8IP1 (11723275_at) / RFU SPTSSB (11747773_x_at) / Fold change /veh SPTSSB (11747773_x_at) / RFU PRSS12 (11739890_at) / Fold change /veh PRSS12 (11739890_at) / RFU BIN1 (11741810_x_at) / Fold change /veh BIN1 (11741810_x_at) / RFU WNT11 (11732464_a_at) / Fold change /veh WNT11 (11732464_a_at) / RFU C10orf10 (11716521_a_at) / Fold change /veh C10orf10 (11716521_a_at) / RFU C5orf56 (11738089_at) / Fold change /veh C5orf56 (11738089_at) / RFU CYB561 (11721691_x_at) / Fold change /veh CYB561 (11721691_x_at) / RFU ANKRD19P (11752326_a_at) / Fold change /veh ANKRD19P (11752326_a_at) / RFU OR2T12 /// OR2T33 /// OR2T8 (11738714_s_at) / Fold change /veh OR2T12 /// OR2T33 /// OR2T8 (11738714_s_at) / RFU VCAN (11748164_a_at) / Fold change /veh VCAN (11748164_a_at) / RFU JSRP1 (11732532_at) / Fold change /veh JSRP1 (11732532_at) / RFU KRTAP10-11 (11738290_x_at) / Fold change /veh KRTAP10-11 (11738290_x_at) / RFU MYO3A (11730013_a_at) / Fold change /veh MYO3A (11730013_a_at) / RFU EBF3 (11725865_a_at) / Fold change /veh EBF3 (11725865_a_at) / RFU CAMK2N1 (11719241_x_at) / Fold change /veh CAMK2N1 (11719241_x_at) / RFU C5orf56 (11738088_a_at) / Fold change /veh C5orf56 (11738088_a_at) / RFU OLFML3 (11715873_a_at) / Fold change /veh OLFML3 (11715873_a_at) / RFU LOC100653217 /// NTM (11731650_a_at) / Fold change /veh LOC100653217 /// NTM (11731650_a_at) / RFU MAPK11 (11762145_a_at) / Fold change /veh MAPK11 (11762145_a_at) / RFU FIZ1 (11724087_x_at) / Fold change /veh FIZ1 (11724087_x_at) / RFU OASL (11726364_x_at) / Fold change /veh OASL (11726364_x_at) / RFU SOX15 (11748057_x_at) / Fold change /veh SOX15 (11748057_x_at) / RFU CD79A (11719716_a_at) / Fold change /veh CD79A (11719716_a_at) / RFU HIST1H1D (11736915_at) / Fold change /veh HIST1H1D (11736915_at) / RFU CASKIN2 (11723855_a_at) / Fold change /veh CASKIN2 (11723855_a_at) / RFU LOC730098 (11760151_x_at) / Fold change /veh LOC730098 (11760151_x_at) / RFU OR4N2 (11742367_at) / Fold change /veh OR4N2 (11742367_at) / RFU PRRT2 (11749266_a_at) / Fold change /veh PRRT2 (11749266_a_at) / RFU SNX32 (11753110_a_at) / Fold change /veh SNX32 (11753110_a_at) / RFU CDHR5 (11726645_a_at) / Fold change /veh CDHR5 (11726645_a_at) / RFU RCAN1 (11760418_a_at) / Fold change /veh RCAN1 (11760418_a_at) / RFU FAM167A (11723789_a_at) / Fold change /veh FAM167A (11723789_a_at) / RFU FAM26E (11764081_at) / Fold change /veh FAM26E (11764081_at) / RFU ISYNA1 (11749810_s_at) / Fold change /veh ISYNA1 (11749810_s_at) / RFU ACY1 (11761880_at) / Fold change /veh ACY1 (11761880_at) / RFU 11764098_at / Fold change /veh 11764098_at / RFU SAMD14 (11745864_x_at) / Fold change /veh SAMD14 (11745864_x_at) / RFU NPB (11741838_a_at) / Fold change /veh NPB (11741838_a_at) / RFU TMPRSS6 (11731388_a_at) / Fold change /veh TMPRSS6 (11731388_a_at) / RFU KRTAP10-2 (11738614_at) / Fold change /veh KRTAP10-2 (11738614_at) / RFU ARHGAP8 /// PRR5-ARHGAP8 (11727945_x_at) / Fold change /veh ARHGAP8 /// PRR5-ARHGAP8 (11727945_x_at) / RFU KRTAP5-7 /// NADSYN1 (11734609_at) / Fold change /veh KRTAP5-7 /// NADSYN1 (11734609_at) / RFU RASL12 (11751679_a_at) / Fold change /veh RASL12 (11751679_a_at) / RFU CDKN2B (11736163_a_at) / Fold change /veh CDKN2B (11736163_a_at) / RFU PRF1 (11729649_at) / Fold change /veh PRF1 (11729649_at) / RFU, ZNF638 /// ZNF638-IT1 / Fold change vs veh, ZNF638 /// ZNF638-IT1 / RFU, PANK3 / Fold change vs veh, PANK3 / RFU, SH3YL1 / Fold change vs veh, SH3YL1 / RFU, ZEB2 / Fold change vs veh, ZEB2 / RFU, NRIP1 / Fold change vs veh, NRIP1 / RFU, PTTG1IP / Fold change vs veh, PTTG1IP / RFU, CAPN2 / Fold change vs veh, CAPN2 / RFU, MED14 / Fold change vs veh, MED14 / RFU, SNORA58 / Fold change vs veh, SNORA58 / RFU, C1orf63 / Fold change vs veh, C1orf63 / RFU, LRRFIP1 / Fold change vs veh, LRRFIP1 / RFU, NDUFAF7 / Fold change vs veh, NDUFAF7 / RFU, SLC12A2 / Fold change vs veh, SLC12A2 / RFU, IBTK / Fold change vs veh, IBTK / RFU, ESF1 / Fold change vs veh, ESF1 / Fold change vs veh, TMEM50B / RFU, TAOK1 / Fold change vs veh, TAOK1 / RFU, ACBD3 / Fold change vs veh, ACBD3 / RFU, TMA16 / Fold change vs veh, TMA16 / RFU, RWDD3 / Fold change vs veh, RWDD3 / RFU, BCAT1 / Fold change vs veh, BCAT1 / RFU, EDEM3 / Fold change vs veh, EDEM3 / RFU, TMEM33 / Fold change vs veh, TMEM33 / RFU, WDR75 / Fold change vs veh, WDR75 / RFU, AHCTF1 / Fold change vs veh, AHCTF1 / RFU, TFRC / Fold change vs veh, TFRC / RFU, ZDHHC17 / Fold change vs veh, ZDHHC17 / RFU, NOM1 / Fold change vs veh, NOM1 / RFU, ARL8B / Fold change vs veh, ARL8B / RFU, ZBTB11 / Fold change vs veh, ZBTB11 / RFU, TAMM41 / Fold change vs veh, TAMM41 / RFU, KIAA1704 /// LOC100996395 / Fold change vs veh, KIAA1704 /// LOC100996395 / RFU, ING1 / Fold change vs veh, ING1 / RFU, TRMT61B / Fold change vs veh, TRMT61B / RFU, FUBP3 / Fold change vs veh, FUBP3 / RFU, TP53 / Fold change vs veh, TP53 / RFU, TNKS2 / Fold change vs veh, TNKS2 / RFU, ZFP14 / Fold change vs veh, ZFP14 / RFU, ACTR2 / Fold change vs veh, ACTR2 / RFU, PPP3R1 / Fold change vs veh, PPP3R1 / RFU, PIK3R1 / Fold change vs veh, PIK3R1 / RFU, HNRNPA1 / Fold change vs veh, HNRNPA1 / RFU, RNF170 / Fold change vs veh, RNF170 / RFU, ZNF28 / Fold change vs veh, ZNF28 / RFU, RNGTT / Fold change vs veh, RNGTT / RFU, OGT / Fold change vs veh, OGT / RFU, BRD1 / Fold change vs veh, BRD1 / RFU, MARS / Fold change vs veh, MARS / RFU, ZNF655 / Fold change vs veh, ZNF655 / RFU, FAHD1 / Fold change vs veh, FAHD1 / RFU, BDP1 / Fold change vs veh, BDP1 / RFU, LRRCC1 / Fold change vs veh, LRRCC1 / RFU, ARID1A / Fold change vs veh, ARID1A / RFU, ZNF146 / Fold change vs veh, ZNF146 / RFU, ZNF330 / Fold change vs veh, ZNF330 / RFU, GPN3 / Fold change vs veh, GPN3 / RFU, C9orf123 / Fold change vs veh, C9orf123 / RFU, N4BP2L2 / Fold change vs veh, N4BP2L2 / RFU, ARFIP1 / Fold change vs veh, ARFIP1 / RFU, FAM179B / Fold change vs veh, FAM179B / RFU, BCL10 / Fold change vs veh, BCL10 / RFU, UHRF1BP1L / Fold change vs veh, UHRF1BP1L / RFU, BET1 / Fold change vs veh, BET1 / RFU, CNOT2 / Fold change vs veh, CNOT2 / RFU, ZNF268 / Fold change vs veh, ZNF268 / Fold change vs veh, ZNF507 / RFU, DGCR2 / Fold change vs veh, DGCR2 / RFU, WDSUB1 / Fold change vs veh, WDSUB1 / Fold change vs veh, HSP90B1 /// MIR3652 / RFU, ADSS / Fold change vs veh, ADSS / RFU, GK / Fold change vs veh, GK / RFU, ZNF148 / Fold change vs veh, ZNF148 / RFU, TAF9 / Fold change vs veh, TAF9 / RFU, SLC1A5 / Fold change vs veh, SLC1A5 / RFU, SLMO2 / Fold change vs veh, SLMO2 / RFU, ABCC4 / Fold change vs veh, ABCC4 / RFU, LOC101060439 /// RAP1B / Fold change vs veh, LOC101060439 /// RAP1B / RFU, RFX7 / Fold change vs veh, RFX7 / RFU, GTPBP10 / Fold change vs veh, GTPBP10 / RFU, CNEP1R1 / Fold change vs veh, CNEP1R1 / RFU, BIVM-ERCC5 /// ERCC5 / Fold change vs veh, BIVM-ERCC5 /// ERCC5 / RFU, ILF3 / Fold change vs veh, ILF3 / RFU 11762660_at / Fold change /veh 11762660_at / RFU VCAN (11757783_s_at) / Fold change /veh VCAN (11757783_s_at) / RFU DDX43 (11728927_at) / Fold change /veh DDX43 (11728927_at) / RFU KRT8 (11758188_x_at) / Fold change /veh KRT8 (11758188_x_at) / RFU NKD1 (11759106_at) / Fold change /veh NKD1 (11759106_at) / RFU SRD5A1 (11742802_a_at) / Fold change /veh SRD5A1 (11742802_a_at) / RFU TPSAB1 /// TPSB2 (11721975_s_at) / Fold change /veh TPSAB1 /// TPSB2 (11721975_s_at) / RFU GSTM3 (11746129_a_at) / Fold change /veh GSTM3 (11746129_a_at) / RFU IL23R (11737362_x_at) / Fold change /veh IL23R (11737362_x_at) / RFU TMEM51 (11727254_a_at) / Fold change /veh TMEM51 (11727254_a_at) / RFU PIWIL2 (11732686_x_at) / Fold change /veh PIWIL2 (11732686_x_at) / RFU ORM1 (11744905_x_at) / Fold change /veh ORM1 (11744905_x_at) / RFU CCDC152 (11743942_at) / Fold change /veh CCDC152 (11743942_at) / RFU ECM1 (11717891_a_at) / Fold change /veh ECM1 (11717891_a_at) / RFU IL23R (11748794_a_at) / Fold change /veh IL23R (11748794_a_at) / RFU TNFAIP8L3 (11732012_x_at) / Fold change /veh TNFAIP8L3 (11732012_x_at) / RFU MBOAT4 (11741988_at) / Fold change /veh MBOAT4 (11741988_at) / RFU 11764193_at / Fold change /veh 11764193_at / RFU TMEM53 (11763286_at) / Fold change /veh TMEM53 (11763286_at) / RFU MAGEB2 (11727129_at) / Fold change /veh MAGEB2 (11727129_at) / RFU TMEM200A (11744735_a_at) / Fold change /veh TMEM200A (11744735_a_at) / RFU CCDC152 (11751479_a_at) / Fold change /veh CCDC152 (11751479_a_at) / RFU FAM211A (11726209_a_at) / Fold change /veh FAM211A (11726209_a_at) / RFU RGS16 (11746705_a_at) / Fold change /veh RGS16 (11746705_a_at) / RFU VCAN (11755009_s_at) / Fold change /veh VCAN (11755009_s_at) / RFU RHOB (11743442_s_at) / Fold change /veh RHOB (11743442_s_at) / RFU RGS16 (11720943_a_at) / Fold change /veh RGS16 (11720943_a_at) / RFU RGS16 (11720944_at) / Fold change /veh RGS16 (11720944_at) / RFU, VPS4B / Fold change vs veh, VPS4B / RFU, CREB1 / Fold change vs veh, CREB1 / RFU, DNAJC13 / Fold change vs veh, DNAJC13 / RFU, GNAQ / Fold change vs veh, GNAQ / RFU, CDK5R1 / Fold change vs veh, CDK5R1 / RFU, ZRANB3 / Fold change vs veh, ZRANB3 / RFU, CUL4A / Fold change vs veh, CUL4A / RFU, CCNY / Fold change vs veh, CCNY / RFU, UFL1 / Fold change vs veh, UFL1 / RFU, COG3 / Fold change vs veh, COG3 / RFU, DIAPH2 / Fold change vs veh, DIAPH2 / RFU, SKA2 / Fold change vs veh, SKA2 / RFU, AFF3 / Fold change vs veh, AFF3 / RFU, LMF1 / Fold change vs veh, LMF1 / RFU, IPO11 / Fold change vs veh, IPO11 / RFU, DFFB / Fold change vs veh, DFFB / RFU, FOXP1 / Fold change vs veh, FOXP1 / RFU, CARD8 / Fold change vs veh, CARD8 / RFU, STRN3 / Fold change vs veh, STRN3 / RFU, ADK / Fold change vs veh, ADK / RFU, RASSF2 / Fold change vs veh, RASSF2 / RFU, WIPF1 / Fold change vs veh, WIPF1 / RFU, LARP1B / Fold change vs veh, LARP1B / RFU, RASA1 / Fold change vs veh, RASA1 / RFU, RB1 / Fold change vs veh, RB1 / RFU, PPFIA1 / Fold change vs veh, PPFIA1 / RFU, MAT2A / Fold change vs veh, MAT2A / RFU, CCT5 / Fold change vs veh, CCT5 / RFU, WDR92 / Fold change vs veh, WDR92 / RFU, CUX1 / Fold change vs veh, CUX1 / RFU, TTC7A / Fold change vs veh, TTC7A / RFU, TMEM135 / Fold change vs veh, TMEM135 / RFU, DEPTOR / Fold change vs veh, DEPTOR / RFU, CPM / Fold change vs veh, CPM / RFU, DNAJB6 / Fold change vs veh, DNAJB6 / RFU, CACNA2D3 / Fold change vs veh, CACNA2D3 / RFU, DTX4 / Fold change vs veh, DTX4 / RFU, TFCP2 / Fold change vs veh, TFCP2 / RFU, GMCL1 /// GMCL1P1 / Fold change vs veh, GMCL1 /// GMCL1P1 / RFU, AEBP2 / Fold change vs veh, AEBP2 / RFU, SNHG1 /// SNORD22 /// SNORD25 /// SNORD26 /// SNORD27 /// SNORD28 /// SNORD29 /// SNORD31 / Fold change vs veh, SNHG1 /// SNORD22 /// SNORD25 /// SNORD26 /// SNORD27 /// SNORD28 /// SNORD29 /// SNORD31 / Fold change (Aza/veh), C12orf56 (ProbeSet 11735607_a_at) / Fold change (ACY-1035/veh), C12orf56 (ProbeSet 11735607_a_at) / Fold change (Aza/veh), FGFR1OP (ProbeSet 11751329_s_at) / Fold change (ACY-1035/veh), FGFR1OP (ProbeSet 11751329_s_at) / Fold change (Aza/veh), VPS36 (ProbeSet 11739960_a_at) / Fold change (ACY-1035/veh), VPS36 (ProbeSet 11739960_a_at) / RFU SYPL1 (11715823_x_at) / Fold change /veh SYPL1 (11715823_x_at) / RFU IGFBP7 (11715501_s_at) / Fold change /veh IGFBP7 (11715501_s_at) / RFU REEP3 (11722064_at) / Fold change /veh REEP3 (11722064_at) / RFU IGLL1 (11728026_x_at) / Fold change /veh IGLL1 (11728026_x_at): dose or concentration left out as unconfirmed
Conditions: ProbeSet 11724526_at; LIST B

Which “RFU, FAHD1” value does the source give for `Nc1ncn([C@@H]2O[C@H](CO)[C@@H](O)[C@H]2O)c(=O)n1` [azacitidine] here?
The value was 119.69 RFU.
